Results from article PMC5902630, “A Firefly Luciferase Dual Color Bioluminescence Reporter Assay Using Two Substrates To Simultaneously Monitor Two Gene Expression Events” (Scientific Reports, 2018).

Tests used:
PLG3 = PLG3 (Photinus pyralis, UniProt P08659, F250T/L291I/Y340F/F465R, form not given); assay: bioluminescence burst (maximal light intensity), Michaelis-Menten fit; type: biochemical; conditions: 2 mM Mg-ATP, 50 mM Tricine, pH 7.8; read-out: Km (μM) / BtLH2
Source text: bioluminescence burst (maximal light intensity), Michaelis-Menten fit on PLG3

PLR1 = PLR1 (Photinus pyralis, UniProt P08659, Y255F/S284T, form not given); assay: as above; type: biochemical; conditions: 2 mM Mg-ATP, 50 mM Tricine, pH 7.8; read-out: Km (μM) / BtLH2
Source text: bioluminescence burst (maximal light intensity), Michaelis-Menten fit on PLR1

PLG3, sequence (P08659 whole entry F250T/L291I/Y340F/F465R, form open): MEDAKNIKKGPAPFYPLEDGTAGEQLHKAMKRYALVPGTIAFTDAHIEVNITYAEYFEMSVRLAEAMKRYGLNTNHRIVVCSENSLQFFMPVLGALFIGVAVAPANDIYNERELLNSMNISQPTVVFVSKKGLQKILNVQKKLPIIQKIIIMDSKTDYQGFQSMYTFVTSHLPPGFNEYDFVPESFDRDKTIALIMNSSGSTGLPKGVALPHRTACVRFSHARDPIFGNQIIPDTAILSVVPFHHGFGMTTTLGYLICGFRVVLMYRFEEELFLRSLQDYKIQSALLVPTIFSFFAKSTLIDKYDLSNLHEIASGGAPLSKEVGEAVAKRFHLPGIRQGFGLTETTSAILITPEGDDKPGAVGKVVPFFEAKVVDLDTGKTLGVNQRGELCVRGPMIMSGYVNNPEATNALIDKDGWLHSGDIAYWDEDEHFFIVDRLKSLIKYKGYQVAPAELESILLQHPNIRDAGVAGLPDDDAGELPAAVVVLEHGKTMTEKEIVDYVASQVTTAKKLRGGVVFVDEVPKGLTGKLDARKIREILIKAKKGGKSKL
PLR1, sequence (P08659 whole entry Y255F/S284T, form open): as the sequence (P08659 whole entry F250T/L291I/Y340F/F465R, form open) above, with T250F, Y255F, S284T, I291L, F340Y, R465F counted along it

Km (PLG3): 5 ± 1 µM
Km (PLR1): 28 ± 3 µM
Structure (SMILES): O=C(O)[C@H]1CSC(c2cc3ccc(O)cc3s2)=N1 [BtLH2]
